This is an account of results in patent US20070003483A1, “Method of evaluating organ function” (Oxygenix Co., Ltd., priority 2003, published 2007).

For test [1], the system named is Mrp2. Briefly: Immunohistochemical analysis of subcellular Mrp2 distribution in 8-hr cold ischemia-reperfused grafts. Set-up: species or system rat. As to conditions: 8-hr cold ischemia and 60-min reperfusion. The source says:
To evaluate Mrp2 in hepatocytes of the grafts, the liver samples were fixed, sliced, and stained with a monoclonal antibody M2III-6, according to previous study (32). The antigen on the sections was visualized by phycoerythrin-conjugated anti-mouse IgG and observed through laser confocal microfluorography at 488 nm as described elsewhere (20, 30). In order to examine BC localization and hepatocellular internalization of Mrp2, the sections were double immunostained with a monoclonal antibody against ZO-1, another marker expressed in hepatocellular junction (33). To determine changes in the protein distribution in a semi-quantitative manner, single-stained microfluorographs of Mrp2 were converted as monochrome 8-bit images (14). The gray levels (1-256) were measured at both cytoplasmic and canalicular domains in a single hepatocytes. At least 5 different sites for each domain were chosen in a single cell to calculate the relative values of cytoplasmic intensities versus the corresponding canalicular intensities. Such a measurement was carried out in 40-60 hepatocytes in 4 different grafts to construct histograms of the percentage cytoplasmic intensities of Mrp2-associated immunoreactivities, being defined as % I-Mrp2(cyt/bc). The elevation of this index represented an increase in the Mtp2 internalization. […]

The target in test [2] is T1, Mrp2 (Rattus norvegicus, UniProt Q63120).
T1 construct: Livers of these rats were perfused ex vivo with the oxygenated Krebs-Henseleit buffer; from tissue; host or cells: whole rat liver grafts (Wistar), perfused ex vivo
Briefly: Biliary excretion rates of carboxyfluorescein (T1/2 of dye exclusion) in whole perfused liver grafts. Particulars: normoperfused grafts in the presence of 1.5 mM probenecid.
Description: (§1) Male Wistar rats (220-260 g, CLEA Japan, Tokyo) and Eisai hyperbilirubinemia rats (EHBR) (220-260 g, Sankyo Inc., Tokyo) that had been allowed free access to laboratory chow and tap water were fasted 24 hrs before experiments. Livers of these rats were perfused ex vivo with the oxygenated Krebs-Henseleit buffer as the base-line perfusate (17, 18), and stored in the University of Wisconsin solution at 4° C. for desired lengths of time (14). When necessary, rats were pretreated with an intravenous injection of liposome-encapsulated dichloromethylene diphosphonate (LDD) at 24 hrs prior to preparation of the ex-vivo liver perfusion for the cold storage according to our previous studies (14, 19). […]
Carboxyfluorescein (CF) is an organic anion which excreted from various cells through Mrp2 (26, 27). […] Bile samples collected from these preparations were deep-frozen until the fluorescence measurements were carried out using a 96-well multi-channel fluorescence spectrophotometer. The measurements were performed under epi-illumination at 440 nm, the isosbestic wavelength of the dye which yields fluorescence at 510 nm without interference with pH values of the samples (26). […] With this assumption, biliary CF lifetimes were determined as the T1/2 of the exponential decay.

Test [3] addresses T1, Mrp2. Briefly: In situ visualization of hepatocellular CF exclusion by intravital laser confocal microfluorography in perfused liver grafts. As to conditions: grafts perfused with 1.5 mM probenecid.
Description: as §1
Liver grafts loaded with CF using the aforementioned protocols were observed through intravital laser confocal microfluorography as described previously (14, 20, 30). […] To calibrate the fluorescence intensities, known concentrations of CF were prepared in vitro and the images were captured under the identical optical parameters of the camera. Gray levels in hepatocytes were measured by variable square window (2×2 μm^2) using digital image processor (18, 31). At least 10 different hepatocytes in the microscopic fields of interests were analyzed in a single experiment.

T1 sequence (Q63120 whole entry, the tested form may be a part): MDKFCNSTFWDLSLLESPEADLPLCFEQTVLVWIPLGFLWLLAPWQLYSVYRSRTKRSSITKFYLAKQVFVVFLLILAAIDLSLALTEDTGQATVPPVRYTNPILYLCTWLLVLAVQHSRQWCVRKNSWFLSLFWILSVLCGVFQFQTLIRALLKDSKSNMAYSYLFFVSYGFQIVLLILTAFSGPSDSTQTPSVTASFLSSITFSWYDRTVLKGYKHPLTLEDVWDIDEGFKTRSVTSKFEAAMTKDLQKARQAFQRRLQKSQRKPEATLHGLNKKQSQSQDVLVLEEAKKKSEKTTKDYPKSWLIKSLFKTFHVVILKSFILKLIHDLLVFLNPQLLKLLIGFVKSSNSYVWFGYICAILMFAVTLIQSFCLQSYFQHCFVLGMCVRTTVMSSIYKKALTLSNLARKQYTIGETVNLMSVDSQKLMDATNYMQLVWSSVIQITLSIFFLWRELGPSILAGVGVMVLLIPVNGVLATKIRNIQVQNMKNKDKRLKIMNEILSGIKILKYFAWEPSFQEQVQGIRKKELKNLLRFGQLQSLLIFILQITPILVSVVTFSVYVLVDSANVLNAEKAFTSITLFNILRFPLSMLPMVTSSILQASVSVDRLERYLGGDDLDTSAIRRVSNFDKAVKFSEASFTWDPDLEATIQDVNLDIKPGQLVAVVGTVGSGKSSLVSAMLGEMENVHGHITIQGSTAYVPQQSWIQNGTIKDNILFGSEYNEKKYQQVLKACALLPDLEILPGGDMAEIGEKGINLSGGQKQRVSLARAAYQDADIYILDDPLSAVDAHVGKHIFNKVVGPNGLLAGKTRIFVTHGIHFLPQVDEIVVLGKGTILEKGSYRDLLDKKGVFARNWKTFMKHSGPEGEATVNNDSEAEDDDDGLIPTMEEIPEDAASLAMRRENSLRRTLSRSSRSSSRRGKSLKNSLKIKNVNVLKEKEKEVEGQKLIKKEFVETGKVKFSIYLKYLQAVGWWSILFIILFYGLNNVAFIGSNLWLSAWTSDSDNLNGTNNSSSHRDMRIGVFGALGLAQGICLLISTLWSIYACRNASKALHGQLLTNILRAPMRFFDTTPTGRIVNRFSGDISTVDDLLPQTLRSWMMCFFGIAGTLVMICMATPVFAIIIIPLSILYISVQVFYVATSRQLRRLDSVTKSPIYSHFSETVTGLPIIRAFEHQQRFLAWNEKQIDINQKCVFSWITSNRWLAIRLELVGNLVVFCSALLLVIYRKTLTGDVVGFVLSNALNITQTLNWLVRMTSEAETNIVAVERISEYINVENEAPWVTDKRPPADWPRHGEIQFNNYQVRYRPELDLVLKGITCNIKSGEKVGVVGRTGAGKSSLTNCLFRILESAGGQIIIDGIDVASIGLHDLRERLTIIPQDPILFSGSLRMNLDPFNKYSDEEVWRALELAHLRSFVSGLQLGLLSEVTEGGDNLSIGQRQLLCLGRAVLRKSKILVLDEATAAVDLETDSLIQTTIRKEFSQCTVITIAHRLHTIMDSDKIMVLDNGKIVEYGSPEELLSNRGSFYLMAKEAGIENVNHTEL

Take `O=C(O)/C=C/c1ccc(Cn2ccnc2)cc1` [OKY-046]: the “Mrp2 internalization (reduced BC localization, elevated cytoplasmic intensity)” value in test [1] was “attenuated”. In the case of `CCCN(CCC)S(=O)(=O)c1ccc(C(=O)O)cc1` [probenecid], the “transient increase of CF concentrations in bile” value in test [2] is recorded as “not observed”. In addition, the “decay of hepatocellular CF fluorescence (Mrp2 transport)” value in test [3] is on record as “substantially slowed”.
